Experimental data: patent US7709507B2 (Allergan, Inc., priority 2006, dated 2010)

Tests used:
Format in all cases: cell-based
alpha2A receptor = molecular target: T1, alpha2A receptor (Homo sapiens, UniProt P08913); assay: Receptor Selection and Amplification Technology (RSAT) assay, Alpha 2A
T1 construct: expressed in transfected cells; host or cells: NIH-3T3 cells
T1 sequence (P08913 1-465): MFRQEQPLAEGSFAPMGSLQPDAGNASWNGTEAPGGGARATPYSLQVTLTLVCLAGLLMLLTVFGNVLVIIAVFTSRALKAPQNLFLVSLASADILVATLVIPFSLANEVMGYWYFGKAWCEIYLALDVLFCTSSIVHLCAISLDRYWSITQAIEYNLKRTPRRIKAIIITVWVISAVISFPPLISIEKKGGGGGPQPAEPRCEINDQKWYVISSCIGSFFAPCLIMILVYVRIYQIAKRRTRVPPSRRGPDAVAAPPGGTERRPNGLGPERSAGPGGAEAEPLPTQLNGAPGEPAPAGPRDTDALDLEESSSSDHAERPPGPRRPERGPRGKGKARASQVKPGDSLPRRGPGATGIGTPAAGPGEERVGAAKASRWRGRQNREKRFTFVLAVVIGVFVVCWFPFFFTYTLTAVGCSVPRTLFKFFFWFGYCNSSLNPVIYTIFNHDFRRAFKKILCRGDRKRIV
Experimental: (§1) Receptor Selection and Amplification Technology (RSAT) Assay
(§2) The RSAT assay measures a receptor-mediated loss of contact inhibition that results in selective proliferation of receptor-containing cells in a mixed population of confluent cells. The increase in cell number is assessed with an appropriate transfected marker gene such as β-galactosidase, the activity of which can be easily measured in a 96-well format. Receptors that activate the G protein, Gq, elicit this response. Alpha2 receptors, which normally couple to Gi, activate the RSAT response when coexpressed with a hybrid Gq protein that has a Gi receptor recognition domain, called Gq/i5.
(§3) NIH-3T3 cells are plated at a density of 2×10^6 cells in 15 cm dishes and maintained in Dulbecco's modified Eagle's medium supplemented with 10% calf serum. One day later, cells are cotransfected by calcium phosphate precipitation with mammalian expression plasmids encoding p-SV-β-galactosidase (5-10 μg), receptor (1-2 μg) and G protein (1-2 μg). 40 μg salmon sperm DNA may also be included in the transfection mixture. […] Cells are thawed and 100 μl added to 100 μl aliquots of various concentrations of drugs in triplicate in 96-well dishes. Incubations continue 72-96 hr at 37° C. After washing with phosphate-buffered saline, β-galactosidase enzyme activity is determined by adding 200 μl of the chromogenic substrate (consisting of 3.5 mM o-nitrophenyl-β-D-galactopyranoside and 0.5% nonidet P-40 in phosphate buffered saline), incubating overnight at 30° C. and measuring optical density at 420 nm. The absorbance is a measure of enzyme activity, which depends on cell number and reflects a receptor-mediated cell proliferation. The efficacy or intrinsic activity is calculated as a ratio of the maximal effect of the drug to the maximal effect of a standard full agonist for each receptor subtype. Brimonidine, also called UK14304, the chemical structure of which is shown below, is used as the standard agonist for the alpha2A, alpha2B and alpha2C receptors. The EC50 is the concentration at which the drug effect is half of its maximal effect.
(§4) EC50 values are nanomolar. NA stands for “not active” at concentrations less than 10 micromolar. IA stands for “intrinsic activity.”

alpha2B receptor = molecular target: T2, alpha2B receptor (Homo sapiens, UniProt P18089); assay: Receptor Selection and Amplification Technology (RSAT) assay, Alpha 2B; conditions: for EC50: RSAT, transfected NIH-3T3 cells with Gq/i5, not active = at concentrations less than 10 micromolar, read-out: Alpha 2B EC50; for Alpha 2B IA (intrinsic activity): ratio of maximal effect to that of standard full agonist brimonidine (UK14304)
T2 construct: expressed in transfected cells; host or cells: NIH-3T3 cells
T2 sequence (P18089 1-450): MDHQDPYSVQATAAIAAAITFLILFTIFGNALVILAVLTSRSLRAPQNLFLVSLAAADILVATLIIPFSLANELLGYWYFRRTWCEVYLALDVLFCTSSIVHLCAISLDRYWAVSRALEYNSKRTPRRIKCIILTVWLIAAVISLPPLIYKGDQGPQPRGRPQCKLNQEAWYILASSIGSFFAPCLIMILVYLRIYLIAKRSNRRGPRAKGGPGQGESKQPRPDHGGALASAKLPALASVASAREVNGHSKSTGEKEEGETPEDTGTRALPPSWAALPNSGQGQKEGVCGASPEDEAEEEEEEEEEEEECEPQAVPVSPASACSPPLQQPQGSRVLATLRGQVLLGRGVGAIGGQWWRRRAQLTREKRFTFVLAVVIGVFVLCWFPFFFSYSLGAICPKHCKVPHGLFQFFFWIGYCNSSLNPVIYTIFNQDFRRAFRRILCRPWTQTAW
Experimental: as §1, §2
NIH-3T3 cells are plated at a density of 2×10^6 cells in 15 cm dishes and maintained in Dulbecco's modified Eagle's medium supplemented with 10% calf serum. One day later, cells are cotransfected by calcium phosphate precipitation with mammalian expression plasmids encoding p-SV-β-galactosidase (5-10 μg), receptor (1-2 μg) and G protein (1-2 μg). 40 μg salmon sperm DNA may also be included in the transfection mixture. Fresh media is added on the following day and 1-2 days later, cells are harvested and frozen in 50 assay aliquots. Cells are thawed and 100 μl added to 100 μl aliquots of various concentrations of drugs in triplicate in 96-well dishes. Incubations continue 72-96 hr at 37° C. After washing with phosphate-buffered saline, β-galactosidase enzyme activity is determined by adding 200 μl of the chromogenic substrate (consisting of 3.5 mM o-nitrophenyl-β-D-galactopyranoside and 0.5% nonidet P-40 in phosphate buffered saline), incubating overnight at 30° C. and measuring optical density at 420 nm. The absorbance is a measure of enzyme activity, which depends on cell number and reflects a receptor-mediated cell proliferation. The efficacy or intrinsic activity is calculated as a ratio of the maximal effect of the drug to the maximal effect of a standard full agonist for each receptor subtype. Brimonidine, also called UK14304, the chemical structure of which is shown below, is used as the standard agonist for the alpha2A, alpha2B and alpha2C receptors. The EC50 is the concentration at which the drug effect is half of its maximal effect.
The results of the RSAT assay with several exemplary compounds of the invention are disclosed in Table 1 above together with the chemical formulas of these exemplary compounds. EC50 values are nanomolar. NA stands for “not active” at concentrations less than 10 micromolar. IA stands for “intrinsic activity.”

alpha2C receptor = molecular target: T3, alpha2C receptor (Homo sapiens, UniProt P18825); assay: Receptor Selection and Amplification Technology (RSAT) assay, Alpha 2C; conditions: for Alpha 2C EC50 / EC50: RSAT, transfected NIH-3T3 cells with Gq/i5, not active = at concentrations less than 10 micromolar; for EC50: read-out: Alpha 2C EC50; for Alpha 2C IA (intrinsic activity): ratio of maximal effect to that of standard full agonist brimonidine (UK14304)
T3 construct: expressed in transfected cells; host or cells: NIH-3T3 cells
T3 sequence (P18825 1-462): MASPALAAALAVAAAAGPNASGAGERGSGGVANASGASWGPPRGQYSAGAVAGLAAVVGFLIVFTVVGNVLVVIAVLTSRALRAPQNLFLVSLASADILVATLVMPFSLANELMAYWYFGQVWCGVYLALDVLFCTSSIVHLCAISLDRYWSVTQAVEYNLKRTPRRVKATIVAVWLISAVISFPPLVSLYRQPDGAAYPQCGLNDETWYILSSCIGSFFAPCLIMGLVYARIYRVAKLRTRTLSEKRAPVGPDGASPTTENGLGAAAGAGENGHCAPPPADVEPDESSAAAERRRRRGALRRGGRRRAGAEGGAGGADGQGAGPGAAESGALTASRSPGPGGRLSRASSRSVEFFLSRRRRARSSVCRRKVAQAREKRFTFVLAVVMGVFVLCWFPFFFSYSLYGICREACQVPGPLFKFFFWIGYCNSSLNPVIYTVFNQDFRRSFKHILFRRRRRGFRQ
Experimental: as §1, §2, §3, §4

[1] = RSAT, transfected NIH-3T3 cells with Gq/i5, not active = at concentrations less than 10 micromolar

Row | Structure (SMILES) | Alpha 2A EC50 (alpha2A receptor; [1]) | EC50 (alpha2B receptor) [nM] | Alpha 2B IA (intrinsic activity) (alpha2B receptor) | Alpha 2C EC50 (alpha2C receptor) | EC50 (alpha2C receptor) [nM] | Alpha 2C IA (intrinsic activity) (alpha2C receptor) | EC50 (alpha2A receptor; RSAT, transfected NIH-3T3 cells with Gq/i5, not active = at concentrations less than 10 micromolar, read-out: Alpha 2A EC50) [nM] | Alpha 2A IA (intrinsic activity) (alpha2A receptor; ratio of maximal effect to that of standard full agonist brimonidine (UK14304))
1 | O=C(NCCF)NC(Cc1ccccc1F)c1ccncc1 (stereo not shown) [1-(2-fluoro-ethyl)-3-[2-(2-fluoro-phenyl)-1-pyridin-4-yl-ethyl]-urea] | not active | 2120 | 0.53 | not active | – | – | – | –
2 | O=C(NCCF)NC(Cc1ccccc1)c1ccc(O)cc1 (stereo not shown) | not active | 146 | 0.82 | not active | – | – | – | –
3 | O=C(NCCF)NC(Cc1ccc(F)cc1)c1ccccc1 (stereo not shown) [1-(2-fluoroethyl)-3-[2-(4-fluorophenyl)-1-phenylethyl]urea] | not active | 51.3 | 0.93 | not active | – | – | – | –
4 | O=C(NCCF)NC(Cc1cccc(F)c1)c1cccnc1 (stereo not shown) [1-(2-fluoro-ethyl)-3-[2-(3-fluoro-phenyl)-1-pyridin-3-yl-ethyl]-urea] | not active | 1990 | 0.41 | not active | – | – | – | –
5 | O=C(NCCF)NC(Cc1ccccc1)c1ccc(Cl)c(Cl)c1 (stereo not shown) [1-[1-(3,4-dichlorophenyl)-2-phenylethyl]-3-(2-fluoroethyl)urea] | not active | 488 | 0.69 | not active | – | – | – | –
6 | O=C(NCCF)NC(Cc1ccccc1)c1cccc(Br)c1 (stereo not shown) [1-[1-(3-Bromophenyl)-2-phenylethyl]-3-(2-fluoroethyl)urea] | not active | 173 | 0.86 | not active | – | – | – | –
7 | O=C(NCCF)NC(Cc1ccccc1)c1ccccc1Cl (stereo not shown) [1-[1-(2-chlorophenyl)-2-phenylethyl]-3-(2-fluoroethyl)urea] | not active | 407 | 0.64 | – | 700 | 0.34 | – | –
8 | COc1ccccc1C(Cc1ccccc1)NC(=O)NCCF (stereo not shown) [1-(2-fluoroethyl)-3-[1-(2-methoxyphenyl)-2-phenylethyl]urea] | not active | 51.2 | 0.88 | – | 78.9 | 0.42 | – | –
9 | O=C(NCCF)NC(Cc1ccccc1)c1ccc(F)cc1 (stereo not shown) | not active | 299 | 0.71 | not active | – | – | – | –
10 | COc1ccc(C(Cc2ccccc2)NC(=O)NCCF)cc1 (stereo not shown) [1-(2-fluoroethyl)-3-[1-(4-methoxyphenyl)-2-phenylethyl]urea] | not active | 1060 | 0.3 | not active | – | – | – | –
11 | O=C(NCCF)NC(Cc1ccccc1)c1ccco1 (stereo not shown) [1-(2-fluoro-ethyl)-3-(1-furan-2-yl-2-phenyl-ethyl)-urea] | not active | 513 | 0.77 | not active | – | – | – | –
12 | O=C(NCCF)NC(Cc1ccc(F)c(F)c1)c1ccncc1 (stereo not shown) [1-[2-(3,4-difluoro-phenyl)-1-pyridin-4-yl-ethyl]-3-(2-fluoro-ethyl)-urea] | not active | 3620 | 0.44 | not active | – | – | – | –

These reach a lower EC50 (alpha2B receptor). Values come first.

Row | Alpha 2A EC50 (alpha2A receptor; [1]) | EC50 (alpha2B receptor) [nM] | Alpha 2B IA (intrinsic activity) (alpha2B receptor) | Alpha 2C EC50 (alpha2C receptor) | EC50 (alpha2C receptor) [nM] | Alpha 2C IA (intrinsic activity) (alpha2C receptor) | EC50 (alpha2A receptor; RSAT, transfected NIH-3T3 cells with Gq/i5, not active = at concentrations less than 10 micromolar, read-out: Alpha 2A EC50) [nM] | Alpha 2A IA (intrinsic activity) (alpha2A receptor; ratio of maximal effect to that of standard full agonist brimonidine (UK14304)) | Structure (SMILES)
13 | not active | 37 | 1.08 | not active | – | – | – | – | Cc1cccc(C(Cc2cccs2)NC(=O)NCCF)c1 (stereo not shown) [1-(2-fluoro-ethyl)-3-(2-thiophen-2-yl-1-m-tolyl-ethyl)-urea]
14 | not active | 29.8 | 0.91 | not active | – | – | – | – | Cc1cccc(C(Cc2ccccc2)NC(=O)NCCF)c1 (stereo not shown) [drawing 72, 1-(2-fluoroethyl)-3-[1-(3-methylphenyl)-2-phenylethyl]urea]
15 | not active | 26.8 | 0.94 | – | 787 | 0.38 | – | – | Cc1ccccc1CC(NC(=O)NCCF)c1cccc(Cl)c1 (stereo not shown)
16 | not active | 21.3 | 1.02 | not active | – | – | – | – | Cc1cccc(C(Cc2cc(F)ccc2F)NC(=O)NCCF)c1 (stereo not shown) [1-[2-(2,5-difluoro-phenyl)-1-m-tolyl-ethyl]-3-(2-fluoro-ethyl)-urea]
17 | not active | 20.5 | 1.02 | not active | – | – | – | – | Cc1cccc(C(Cc2cccc(F)c2F)NC(=O)NCCF)c1 (stereo not shown) [1-[2-(2,3-difluoro-phenyl)-1-m-tolyl-ethyl]-3-(2-fluoro-ethyl)-urea]
18 | – | 5.99 | 0.9 | not active | – | – | 70.4 | 0.35 | Cc1cccc(CC(NC(=O)NCCF)c2cccc(Cl)c2)c1 (stereo not shown) [1-[1-(3-chloro-phenyl)-2-m-tolyl-ethyl]-3-(2-fluoro-ethyl)-urea]
